Source: ChEMBL document CHEMBL3217615, “Novel 3,5-bis(arylidiene)-4-piperidone based monocarbonyl analogs of curcumin: anticancer activity evaluation and mode of action study” (2014)

Key:
Format in all cases: functional
COLO 205 [1] = test: Induction of apoptosis in human COLO205 cells assessed as necrotic apoptosis cells level at 10 uM after 24 hrs by Annexin V/propidium iodide staining-based fluorescence microscopy
COLO 205 [2] = test: Induction of apoptosis in human COLO205 cells assessed as early apoptosis cells level at 10 uM after 24 hrs by Annexin V/propidium iodide staining-based fluorescence microscopy
COLO 205 [3] = test: Induction of apoptosis in human COLO205 cells assessed as caspase 9 activation at 10 uM by FLICA
HT-29 = test: Growth inhibition of human HT-29 cells assessed as cell growth at 10^-6 M after 48 hrs by sulforhodamine B assay; conditions: HT-29, 48 h, read-out: Activity
NCI-H460 = test: Growth inhibition of human NCI-H460 cells assessed as cell growth at 10^-6 M after 48 hrs by sulforhodamine B assay; conditions: NCI-H460, 48 h, read-out: Activity
SN12C = test: Growth inhibition of human SN12C cells assessed as cell growth at 10^-7 M after 48 hrs by sulforhodamine B assay; conditions: read-out: Activity
[4] = Growth inhibition of human OVCAR8 cells assessed as cell growth at 10^-7 M after 48 hrs by sulforhodamine B assay; conditions: OVCAR-8, 48 h, read-out: Activity
T47D = test: Growth inhibition of human T47D cells assessed as cell growth at 10^-6 M after 48 hrs by sulforhodamine B assay; conditions: read-out: Activity
A498 = test: Growth inhibition of human A498 cells assessed as cell growth at 10^-6 M after 48 hrs by sulforhodamine B assay; conditions: A498, 48 h, read-out: Activity
NCI-H322M = test: Growth inhibition of human NCI-H322M cells assessed as cell growth at 10^-4 M after 48 hrs by sulforhodamine B assay; conditions: read-out: Activity
SR = test: Growth inhibition of human SR cells assessed as cell growth at 10^-4 M after 48 hrs by sulforhodamine B assay; conditions: read-out: Activity
COLO 205 [5] = test: Induction of apoptosis in human COLO205 cells at 10 uM after 24 hrs by Annexin V/propidium iodide staining-based fluorescence microscopy
[6] = Growth inhibition of human UACC62 cells assessed as cell growth at 10^-8 M after 48 hrs by sulforhodamine B assay; conditions: UACC-62, 48 h
SK-MEL-28 = test: Growth inhibition of human SK-MEL-28 cells assessed as cell growth at 10^-8 M after 48 hrs by sulforhodamine B assay; conditions: SK-MEL-28, 48 h
SK-MEL-2 [7] = test: Growth inhibition of human SK-MEL-2 cells assessed as cell growth at 10^-8 M after 48 hrs by sulforhodamine B assay; conditions: SK-MEL-2, 48 h
MDA-MB-435 = test: Growth inhibition of human MDA-MB-435 cells assessed as cell growth at 10^-8 M after 48 hrs by sulforhodamine B assay; conditions: MDA-MB-435, 48 h
[8] = Growth inhibition of human SF539 cells assessed as cell growth at 10^-8 M after 48 hrs by sulforhodamine B assay; conditions: SF-539, 48 h
NCI-H522 = test: Growth inhibition of human NCI-H522 cells assessed as cell growth at 10^-8 M after 48 hrs by sulforhodamine B assay; conditions: NCI-H522, 48 h
NCI-H23 = test: Growth inhibition of human NCI-H23 cells assessed as cell growth at 10^-8 M after 48 hrs by sulforhodamine B assay; conditions: NCI-H23, 48 h
HOP-62 = test: Growth inhibition of human HOP62 cells assessed as cell growth at 10^-8 M after 48 hrs by sulforhodamine B assay; conditions: HOP-62, 48 h
RPMI-8226 [9] = test: Growth inhibition of human RPMI8226 cells assessed as cell growth at 10^-8 M after 48 hrs by sulforhodamine B assay; conditions: RPMI-8226, 48 h
[10] = Growth inhibition of human UACC257 cells after 48 hrs by sulforhodamine B assay; conditions: UACC-257, 48 h
[11] = Growth inhibition of human SF539 cells after 48 hrs by sulforhodamine B assay; conditions: SF-539, 48 h
SF-268 = test: Growth inhibition of human SF268 cells after 48 hrs by sulforhodamine B assay; conditions: SF-268, 48 h
COLO 205 [12] = test: Growth inhibition of human COLO205 cells after 48 hrs by sulforhodamine B assay; conditions: COLO 205, 48 h
DU-145 = test: Growth inhibition of human DU145 cells assessed as cell growth at 10^-4 M after 48 hrs by sulforhodamine B assay; conditions: DU-145, 48 h, read-out: Activity
SK-MEL-5 = test: Growth inhibition of human SK-MEL-5 cells assessed as cell growth at 10^-7 M after 48 hrs by sulforhodamine B assay; conditions: SK-MEL-5, 48 h, read-out: Activity
SK-MEL-2 [13] = test: Growth inhibition of human SK-MEL-2 cells assessed as cell growth at 10^-7 M after 48 hrs by sulforhodamine B assay; conditions: SK-MEL-2, 48 h, read-out: Activity
[14] = Growth inhibition of human SF539 cells assessed as cell growth at 10^-7 M after 48 hrs by sulforhodamine B assay; conditions: SF-539, 48 h, read-out: Activity
RPMI-8226 [15] = test: Growth inhibition of human RPMI8226 cells assessed as cell growth at 10^-7 M after 48 hrs by sulforhodamine B assay; conditions: RPMI-8226, 48 h, read-out: Activity
[16] = Growth inhibition of human BT549 cells assessed as cell growth at 10^-8 M after 48 hrs by sulforhodamine B assay; conditions: BT-549, 48 h
[17] = read-out: pLC50 (the source's name) (converted)
[18] = read-out: LC50 (the source's name)

O=C1/C(=C/c2ccc(Cl)cc2Cl)CN(S(=O)(=O)c2ccccc2)C/C1=C\c1ccc(Cl)cc1Cl
Activity (COLO 205 [1]): 1%
Activity (COLO 205 [2]): 52%
Activity (COLO 205 [3]): 22%
growth at 1 µM (HT-29): -8%
growth at 1 µM (NCI-H460): -53%
growth at 0.1 µM (SN12C): 92%
growth at 0.1 µM [4]: 94%
growth at 1 µM (T47D): 55%
growth at 1 µM (A498): 48%
growth at 100 µM (NCI-H322M): -11%
growth at 100 µM (SR): -21%
Activity (COLO 205 [5]): 66%
GI50 [6]: 0.813 µM
LC50 [6]: 5.75 µM
growth at 0.01 µM ([6]; read-out: Activity): 94%
TGI ([6]; read-out: pTGI (converted)): 2.29 µM
GI50 (SK-MEL-28): 4.47 µM
growth at 0.01 µM (SK-MEL-28; read-out: Activity): 97%
CC50 (SK-MEL-28; [17]): > 100 µM
TGI (SK-MEL-28; read-out: pTGI (converted)): > 100 µM
GI50 (SK-MEL-2 [7]): 6.03 µM
LC50 (SK-MEL-2 [7]): > 100 µM
growth at 0.01 µM (SK-MEL-2 [7]; read-out: Activity): 101%
TGI (SK-MEL-2 [7]; read-out: pTGI (converted)): > 100 µM
GI50 (MDA-MB-435): 0.977 µM
LC50 (MDA-MB-435): > 100 µM
growth at 0.01 µM (MDA-MB-435; read-out: Activity): 90%
TGI (MDA-MB-435; read-out: pTGI (converted)): 3.24 µM
GI50 [8]: 0.427 µM
LC50 [8]: > 100 µM
growth at 0.01 µM ([8]; read-out: Activity): 98%
TGI ([8]; read-out: pTGI (converted)): 2.09 µM
GI50 (NCI-H522): 0.851 µM
growth at 0.01 µM (NCI-H522; read-out: Activity): 95%
CC50 (NCI-H522; [17]): 9.77 µM
TGI (NCI-H522; read-out: pTGI (converted)): 3.02 µM
GI50 (NCI-H23): 0.427 µM
LC50 (NCI-H23): > 100 µM
growth at 0.01 µM (NCI-H23; read-out: Activity): 103%
TGI (NCI-H23; read-out: pTGI (converted)): 2.69 µM
GI50 (HOP-62): 0.389 µM
LC50 (concentration killing 50% of cells) (HOP-62): > 100 µM
growth at 0.01 µM (HOP-62; read-out: Activity): 103%
TGI (HOP-62; read-out: pTGI (converted)): > 100 µM
GI50 (RPMI-8226 [9]): 0.224 µM
growth at 0.01 µM (RPMI-8226 [9]; read-out: Activity): 104%
CC50 (RPMI-8226 [9]; [17]): > 100 µM
TGI (RPMI-8226 [9]; read-out: pTGI (converted)): 0.603 µM
GI50 [10]: 4.08 µM
TGI [10]: > 100 µM
CC50 [10, 18]: > 100 µM
GI50 [11]: 0.424 µM
TGI [11]: 2.07 µM
CC50 [11, 18]: > 100 µM
GI50 (SF-268): 0.447 µM
TGI (SF-268): > 100 µM
CC50 (SF-268; [18]): > 100 µM
GI50 (COLO 205 [12]): 0.424 µM
TGI (COLO 205 [12]): 2.01 µM
CC50 (COLO 205 [12]; [18]): > 100 µM
growth at 100 µM (DU-145): -10%
growth at 0.1 µM (SK-MEL-5): 98%
growth at 0.1 µM (SK-MEL-2 [13]): 111%
growth at 0.1 µM [14]: 97%
growth at 0.1 µM (RPMI-8226 [15]): 91%
GI50 [16]: 0.977 µM
LC50 [16]: > 100 µM
growth at 0.01 µM ([16]; read-out: Activity): 106%
TGI ([16]; read-out: pTGI (converted)): 4.17 µM
